Results on eleven compounds are retold here after paper PMC11056980 (Journal of medicinal chemistry, 2024).

Data set [1] in a line: in vitro. To be noted: human, microsomes, pH 7.4.
In data set [2] the target is SARS-CoV-2 M^Pro (Severe acute respiratory syndrome coronavirus 2, UniProt P0DTD1). The format is biochemical. The settings on record: 20 nM M^Pro, 30 min preincubation, 10 μM Sub3.
A short description of data set [3]: in vitro. The settings on record: human.
The subject of data set [4] is SARS-CoV-2 strain XBB.1.5. Type of data set: cell-based.
Data set [5] relates to SARS-CoV-2 strain BA.1. The format is cell-based.

In the case of `C[C@@H](OC(C)(C)C)[C@H](NC(=O)OCc1cccc(OCCCCCCCCOc2cccc3c2C(=O)N(C2CCC(=O)NC2=O)C3=O)c1)C(=O)N[C@@H](CC1CCCCC1)C(=O)N[C@H](C=O)C[C@@H]1CCNC1=O` (some centres unmarked) [MPD3], the CLint scaled – broadly, a measure of how fast metabolising enzymes remove a compound, apart from limits set by blood flow – in data set [1] was 24.7 ± 0.5 mL/min/kg.
On the same count and under the same terms, with `C[C@@H](OC(C)(C)C)[C@H](NC(=O)OCc1cccc(OCCCCOc2cccc3c2C(=O)N(C2CCC(=O)NC2=O)C3=O)c1)C(=O)N[C@@H](CC1CCCCC1)C(=O)N[C@H](C=O)C[C@@H]1CCNC1=O` (some centres unmarked) [MPD1] the figure was 149 ± 12.7 mL/min/kg.
Turning to `CC(C)(CCOCCCCCCOc1cccc2c1C(=O)N(C1CCC(=O)NC1=O)C2=O)NC(=O)N[C@H](C(=O)N1C[C@H]2[C@@H]([C@H]1C(=O)N[C@H](C=O)C[C@@H]1CCNC1=O)C2(C)C)C(C)(C)C` (some centres unmarked) [MPD8], the IC50 (as a rule, the concentration needed to halve the response being measured) in data set [2] is 24 nM.
As for `C[C@@H](OC(C)(C)C)[C@H](NC(=O)OCc1cn(CCOCCOCCOCCC(=O)Nc2cccc3c2C(=O)N(C2CCC(=O)NC2=O)C3=O)nn1)C(=O)N[C@@H](CC1CCCCC1)C(=O)N[C@H](C=O)C[C@@H]1CCNC1=O` (some centres unmarked) [MPD5], the IC50 in data set [2] turned out to be 36 nM.
On to `C[C@@H](OC(C)(C)C)[C@H](NC(=O)OCc1ccccc1)C(=O)N[C@@H](CC1CCCCC1)C(=O)N[C@H](C=O)C[C@@H]1CCNC1=O` [MPI8, reference compound], for which the CC50 at 48 h in data set [3] was 70000 nM.
Turning to `CC(C)(COCCCCCCOc1cccc2c1C(=O)N(C1CCC(=O)NC1=O)C2=O)NC(=O)N[C@H](C(=O)N1C[C@H]2[C@@H]([C@H]1C(=O)N[C@H](C=O)C[C@@H]1CCNC1=O)C2(C)C)C(C)(C)C` (some centres unmarked) [MPD7], in data set [2], the 50% inhibitory concentration (IC50) stood at 35 nM.
With `CN(CCN(C)c1cccc2c1C(=O)N(C1CCC(=O)NC1=O)C2=O)C(=O)CCC(C)(C)NC(=O)N[C@H](C(=O)N1C[C@H]2[C@@H]([C@H]1C(=O)N[C@H](C=O)C[C@@H]1CCNC1=O)C2(C)C)C(C)(C)C` (some centres unmarked) [MPD9], the IC50 in data set [2] is 31 nM.
The compound `CC(C)(CCC(=O)NCCCC(=O)Nc1cccc2c1C(=O)N(C1CCC(=O)NC1=O)C2=O)NC(=O)N[C@H](C(=O)N1C[C@H]2[C@@H]([C@H]1C(=O)N[C@H](C=O)C[C@@H]1CCNC1=O)C2(C)C)C(C)(C)C` (some centres unmarked) [MPD10] yielded an IC50 in data set [2] of 149 nM.
Take `C[C@@H](OC(C)(C)C)[C@H](NC(=O)OCc1cccc(OCCCCCCOc2cccc3c2C(=O)N(C2CCC(=O)NC2=O)C3=O)c1)C(=O)N[C@@H](CC1CCCCC1)C(=O)N[C@H](C=O)C[C@@H]1CCNC1=O` (some centres unmarked) [MPD2]: the “reduction of viral production” value in data set [4] and in data set [5] was 90% in each case. The CLint scaled in data set [1] was found to be 36.3 ± 2.51 mL/min/kg. The same compound came in with a CLint scaled at 1 h, 5 µM in data set [1] of 36.2 mL/min/kg.
The compound `C[C@@H](OC(C)(C)C)[C@H](NC(=O)OCc1cn(CCOCCOCCOCCC(=O)N(C)CCN(C)c2cccc3c2C(=O)N(C2CCC(=O)NC2=O)C3=O)nn1)C(=O)N[C@@H](CC1CCCCC1)C(=O)N[C@H](C=O)C[C@@H]1CCNC1=O` (some centres unmarked) [MPD6] gave an IC50 in data set [2] of 111 nM.
Compound `C[C@@H](OC(C)(C)C)[C@H](NC(=O)OCc1cccc(OCCCCCCN(C)CCN(C)c2cccc3c2C(=O)N(C2CCC(=O)NC2=O)C3=O)c1)C(=O)N[C@@H](CC1CCCCC1)C(=O)N[C@H](C=O)C[C@@H]1CCNC1=O` (some centres unmarked) [MPD4] had an IC50 in data set [2] of 36 nM.
